Data from publication PMC11219871, “Epigenetic-based differentiation therapy for Acute Myeloid Leukemia” (Nature Communications, 2024).
pIC50: −log10 of the molar value.

Assays:
Experiment in all cases: Epigenetic panel (BPS Bioscience)
Assay type in all cases: biochemical
EZH2 (A738T) = biological target: T1, EZH2 (A738T) (Homo sapiens, UniProt Q15910)
T1 construct: purchased BPS Bioscience; Eurofins (HDAC4, 5, 7-11)
From the text: (§1) The selectivity of CM-444 and CM-1758 against other epigenetic targets, including histone demethylase (JMJD2A, JMJD2B, JMJD2C, JMJD2D, JMJD2E, JMJD3, JMJD1A, LSD1, Jarid1A, Jarid1B, Jarid1C, FBXL10, FBXL11, JHDM1D, JMJD1B, PHF8, LSD2 and UTX); histone acetyltransferases (GCN5, P300); histone methyltransferases (G9a, GLP, MLL1, SET7/9, SUV39H1, SUV39H2, PRMT1, PRMT3, PRMT4, PRMT5, PRMT6, PRMT8, PRMT9, NSD1, NSD2, EZH1, EZH2, SETDB1, SETD2, SET8, SUV4-20H1, SMYD2, SMYD3, DOT1L, EZH2 (A677G), EZH2 (A677G), EZH2 (A738T), EZH2 (Y641S), EZH2 (P132S), EZH2 (Y641C), EZH2 (Y641F), EZH2 (Y641H), EZH2 (Y641N)); bromodomains (ATAD2B, ATAD2A, BRD1, BRD9, BPTF/FALZ, CeCR2, BRPF3, BRD3 (BD1 + BD2), BAZ2B, WDR9, TAF1 (BD2), TAF1L (BD2), TAF1L (BD1 + BD2), BRD2 (BD1), BRD2 (BD2), BRD2 (BD1 + BD2), BRD3 (BD1), BRD3 (BD2), BRD4 (BD1), BRD4 (BD2), BRD4 (BD1 + BD2), BRDT (BD1), BRDT (BD1 + BD2), CREBBP, SMARCA2A, SMARCA4/BRG1); DNA methyltranferases (DNMT1, DNMT3A/3L and DNMT3B/3L), and sirtuin histone deacetylases (SIRT1, SIRT2, SIRT3, SIRT5 and SIRT6), were determined by BPS Bioscience (http://www.bpsbioscience.com/index.ph). Binding experiments were performed in duplicate at a concentration of 10 μM.

DNMT3A/3L = biological target: T2, DNMT3A/3L (Homo sapiens, UniProt Q9Y6K1)
T2 construct: purchased BPS Bioscience (contracted assay service)
From the text: as §1

PRMT1 = biological target: T3, PRMT1 (Homo sapiens, UniProt Q99873)
T3 construct: purchased BPS Bioscience; Eurofins (HDAC4, 5, 7-11)
From the text: as §1

LSD2 = biological target: T4, LSD2 (Homo sapiens, UniProt Q8NB78)
T4 construct: purchased BPS Bioscience; Eurofins (HDAC4, 5, 7-11)
From the text: as §1

EZH2 = biological target: T5, EZH2 (Homo sapiens, UniProt Q15910)
T5 construct: purchased BPS Bioscience; Eurofins (HDAC4, 5, 7-11)
From the text: as §1

MLL1 = biological target: T6, MLL1 (Homo sapiens, UniProt Q03164)
T6 construct: purchased BPS Bioscience; Eurofins (HDAC4, 5, 7-11)
From the text: as §1

JMJD1A = biological target: T7, JMJD1A (Homo sapiens, UniProt Q9Y4C1)
T7 construct: purchased BPS Bioscience; Eurofins (HDAC4, 5, 7-11)
From the text: as §1

SET8 = biological target: T8, SET8 (Homo sapiens, UniProt Q9NQR1)
T8 construct: purchased BPS Bioscience; Eurofins (HDAC4, 5, 7-11)
T8 sequence (Q9NQR1 whole entry): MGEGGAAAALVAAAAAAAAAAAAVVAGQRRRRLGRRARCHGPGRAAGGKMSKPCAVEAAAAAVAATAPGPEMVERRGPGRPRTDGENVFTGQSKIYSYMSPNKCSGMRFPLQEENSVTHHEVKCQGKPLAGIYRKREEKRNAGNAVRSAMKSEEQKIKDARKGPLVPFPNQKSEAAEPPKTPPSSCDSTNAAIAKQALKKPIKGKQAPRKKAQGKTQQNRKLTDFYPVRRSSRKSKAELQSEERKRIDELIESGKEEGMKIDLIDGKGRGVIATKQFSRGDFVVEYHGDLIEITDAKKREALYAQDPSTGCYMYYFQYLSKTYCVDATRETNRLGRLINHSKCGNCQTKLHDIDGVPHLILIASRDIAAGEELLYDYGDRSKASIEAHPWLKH
From the text: as §1

JHDM1D = biological target: T9, JHDM1D (Homo sapiens, UniProt Q6ZMT4)
T9 construct: purchased BPS Bioscience; Eurofins (HDAC4, 5, 7-11)
From the text: as §1

SIRT2 = biological target: T10, SIRT2 (Homo sapiens, UniProt Q8IXJ6)
T10 construct: purchased BPS Bioscience; Eurofins (HDAC4, 5, 7-11)
From the text: as §1

Jarid1B = biological target: T11, Jarid1B (Homo sapiens, UniProt Q9UGL1)
T11 construct: purchased BPS Bioscience; Eurofins (HDAC4, 5, 7-11)
From the text: as §1

SET7/9 = biological target: T12, SET7/9 (Homo sapiens, UniProt Q8WTS6)
T12 construct: purchased BPS Bioscience; Eurofins (HDAC4, 5, 7-11)
From the text: as §1

DNMT3B/3L = biological target: T13, DNMT3B/3L (Homo sapiens, UniProt Q9UBC3)
T13 construct: purchased BPS Bioscience (contracted assay service)
From the text: as §1

JMJD2B = biological target: T14, JMJD2B (Homo sapiens, UniProt O94953)
T14 construct: purchased BPS Bioscience; Eurofins (HDAC4, 5, 7-11)
From the text: as §1

JMJD3 = biological target: T15, JMJD3 (Homo sapiens, UniProt O15054)
T15 construct: purchased BPS Bioscience; Eurofins (HDAC4, 5, 7-11)
T15 sequence (O15054 whole entry): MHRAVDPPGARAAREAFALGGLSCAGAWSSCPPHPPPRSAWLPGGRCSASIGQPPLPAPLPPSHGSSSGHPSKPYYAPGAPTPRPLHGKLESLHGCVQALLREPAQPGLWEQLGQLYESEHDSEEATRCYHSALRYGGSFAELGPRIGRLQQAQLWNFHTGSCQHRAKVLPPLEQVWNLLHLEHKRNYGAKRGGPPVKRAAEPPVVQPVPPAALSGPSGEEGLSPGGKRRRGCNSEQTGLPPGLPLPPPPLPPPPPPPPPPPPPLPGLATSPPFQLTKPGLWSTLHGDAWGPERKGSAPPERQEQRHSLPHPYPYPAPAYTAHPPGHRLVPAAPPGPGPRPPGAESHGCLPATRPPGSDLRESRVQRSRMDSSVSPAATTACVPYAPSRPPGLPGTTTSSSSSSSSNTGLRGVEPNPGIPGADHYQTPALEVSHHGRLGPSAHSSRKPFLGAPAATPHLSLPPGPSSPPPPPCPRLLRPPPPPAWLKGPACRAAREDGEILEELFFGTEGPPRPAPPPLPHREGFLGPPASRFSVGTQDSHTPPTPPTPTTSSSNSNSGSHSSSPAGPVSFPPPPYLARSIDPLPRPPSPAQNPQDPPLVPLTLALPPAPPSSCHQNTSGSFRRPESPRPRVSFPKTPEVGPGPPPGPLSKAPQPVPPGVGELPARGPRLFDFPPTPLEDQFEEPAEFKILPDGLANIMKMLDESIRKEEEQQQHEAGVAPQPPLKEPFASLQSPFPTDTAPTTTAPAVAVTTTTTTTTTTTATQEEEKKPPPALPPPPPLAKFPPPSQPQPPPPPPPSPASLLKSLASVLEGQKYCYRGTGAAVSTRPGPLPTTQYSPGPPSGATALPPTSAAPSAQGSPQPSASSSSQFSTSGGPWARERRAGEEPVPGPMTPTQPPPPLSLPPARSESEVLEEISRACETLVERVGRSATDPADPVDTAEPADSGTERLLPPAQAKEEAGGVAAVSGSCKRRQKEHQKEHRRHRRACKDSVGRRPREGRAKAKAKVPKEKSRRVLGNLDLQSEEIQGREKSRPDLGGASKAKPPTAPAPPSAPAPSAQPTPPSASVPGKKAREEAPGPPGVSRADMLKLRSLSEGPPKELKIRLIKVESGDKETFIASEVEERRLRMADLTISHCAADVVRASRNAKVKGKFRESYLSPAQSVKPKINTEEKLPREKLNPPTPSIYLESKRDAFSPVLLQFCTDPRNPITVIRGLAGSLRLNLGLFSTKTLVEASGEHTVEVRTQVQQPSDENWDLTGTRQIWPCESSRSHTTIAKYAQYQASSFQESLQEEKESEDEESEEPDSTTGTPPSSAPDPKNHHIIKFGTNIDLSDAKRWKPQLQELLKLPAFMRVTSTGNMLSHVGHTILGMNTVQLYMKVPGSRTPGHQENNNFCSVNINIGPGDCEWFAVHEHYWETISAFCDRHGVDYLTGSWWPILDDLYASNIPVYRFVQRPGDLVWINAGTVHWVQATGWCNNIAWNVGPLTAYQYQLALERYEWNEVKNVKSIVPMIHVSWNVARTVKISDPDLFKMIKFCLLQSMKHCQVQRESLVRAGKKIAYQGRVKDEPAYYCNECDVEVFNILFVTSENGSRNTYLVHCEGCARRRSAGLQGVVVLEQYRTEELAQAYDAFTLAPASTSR
From the text: as §1

PRMT6 = biological target: T16, PRMT6 (Homo sapiens, UniProt Q96LA8)
T16 construct: purchased BPS Bioscience; Eurofins (HDAC4, 5, 7-11)
From the text: as §1

PRMT8 = biological target: T17, PRMT8 (Homo sapiens, UniProt Q9NR22)
T17 construct: purchased BPS Bioscience; Eurofins (HDAC4, 5, 7-11)
From the text: as §1

PRMT5 = biological target: T18, PRMT5 (Homo sapiens, UniProt O14744)
T18 construct: purchased BPS Bioscience; Eurofins (HDAC4, 5, 7-11)
From the text: as §1

FBXL11 = biological target: T19, FBXL11 (Homo sapiens, UniProt Q9Y2K7)
T19 construct: purchased BPS Bioscience; Eurofins (HDAC4, 5, 7-11)
From the text: as §1

PRMT4 = biological target: T20, PRMT4 (Homo sapiens, UniProt Q86X55)
T20 construct: purchased BPS Bioscience; Eurofins (HDAC4, 5, 7-11)
T20 sequence (Q86X55 whole entry): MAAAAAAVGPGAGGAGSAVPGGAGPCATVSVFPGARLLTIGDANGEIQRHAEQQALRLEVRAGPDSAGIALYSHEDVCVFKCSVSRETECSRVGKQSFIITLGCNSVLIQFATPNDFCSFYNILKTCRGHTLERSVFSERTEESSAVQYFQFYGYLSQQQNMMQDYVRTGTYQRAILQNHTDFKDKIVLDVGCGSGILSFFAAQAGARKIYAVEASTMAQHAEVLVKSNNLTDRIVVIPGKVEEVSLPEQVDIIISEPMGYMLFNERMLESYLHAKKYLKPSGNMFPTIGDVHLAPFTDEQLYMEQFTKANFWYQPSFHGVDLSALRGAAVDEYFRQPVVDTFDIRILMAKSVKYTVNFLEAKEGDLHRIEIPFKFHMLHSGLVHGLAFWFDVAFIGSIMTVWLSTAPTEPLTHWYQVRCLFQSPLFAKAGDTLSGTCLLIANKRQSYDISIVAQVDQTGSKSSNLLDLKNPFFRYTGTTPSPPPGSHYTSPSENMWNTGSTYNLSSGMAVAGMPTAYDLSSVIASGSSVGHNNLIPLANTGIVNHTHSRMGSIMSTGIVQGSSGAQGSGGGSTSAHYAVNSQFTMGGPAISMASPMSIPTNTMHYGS
From the text: as §1

EZH1 = biological target: T21, EZH1 (Homo sapiens, UniProt Q92800)
T21 construct: purchased BPS Bioscience; Eurofins (HDAC4, 5, 7-11)
From the text: as §1

SUV39H1 = biological target: T22, SUV39H1 (Homo sapiens, UniProt O43463)
T22 construct: purchased BPS Bioscience; Eurofins (HDAC4, 5, 7-11)
T22 sequence (O43463 whole entry): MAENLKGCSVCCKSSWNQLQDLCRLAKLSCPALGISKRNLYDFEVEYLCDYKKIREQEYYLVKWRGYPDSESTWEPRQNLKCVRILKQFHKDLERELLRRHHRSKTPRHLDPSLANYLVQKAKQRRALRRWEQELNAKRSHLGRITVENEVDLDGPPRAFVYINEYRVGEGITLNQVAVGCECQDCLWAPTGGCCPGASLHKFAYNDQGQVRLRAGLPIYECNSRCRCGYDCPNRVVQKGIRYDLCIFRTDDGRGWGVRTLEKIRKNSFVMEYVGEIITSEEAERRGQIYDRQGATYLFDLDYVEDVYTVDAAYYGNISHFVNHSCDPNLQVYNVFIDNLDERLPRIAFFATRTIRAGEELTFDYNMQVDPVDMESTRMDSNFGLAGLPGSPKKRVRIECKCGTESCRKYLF
From the text: as §1

PHF8 = biological target: T23, PHF8 (Homo sapiens, UniProt Q9UPP1)
T23 construct: purchased BPS Bioscience; Eurofins (HDAC4, 5, 7-11)
From the text: as §1

SUV39H2 = biological target: T24, SUV39H2 (Homo sapiens, UniProt Q9H5I1)
T24 construct: purchased BPS Bioscience; Eurofins (HDAC4, 5, 7-11)
T24 sequence (Q9H5I1 whole entry): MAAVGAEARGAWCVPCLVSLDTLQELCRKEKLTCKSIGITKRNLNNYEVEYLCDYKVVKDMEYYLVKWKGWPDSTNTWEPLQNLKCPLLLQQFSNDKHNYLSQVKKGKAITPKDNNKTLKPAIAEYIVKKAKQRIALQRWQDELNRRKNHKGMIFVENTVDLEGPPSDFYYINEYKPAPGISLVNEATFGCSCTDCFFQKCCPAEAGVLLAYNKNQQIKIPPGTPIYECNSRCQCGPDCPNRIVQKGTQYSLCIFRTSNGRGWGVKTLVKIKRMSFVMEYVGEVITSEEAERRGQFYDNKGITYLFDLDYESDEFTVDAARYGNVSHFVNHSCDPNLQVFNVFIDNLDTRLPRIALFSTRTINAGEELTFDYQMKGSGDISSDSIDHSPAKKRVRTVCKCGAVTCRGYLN
From the text: as §1

UTX = biological target: T25, UTX (Homo sapiens, UniProt O15550)
T25 construct: purchased BPS Bioscience (contracted assay service)
T25 sequence (O15550 whole entry): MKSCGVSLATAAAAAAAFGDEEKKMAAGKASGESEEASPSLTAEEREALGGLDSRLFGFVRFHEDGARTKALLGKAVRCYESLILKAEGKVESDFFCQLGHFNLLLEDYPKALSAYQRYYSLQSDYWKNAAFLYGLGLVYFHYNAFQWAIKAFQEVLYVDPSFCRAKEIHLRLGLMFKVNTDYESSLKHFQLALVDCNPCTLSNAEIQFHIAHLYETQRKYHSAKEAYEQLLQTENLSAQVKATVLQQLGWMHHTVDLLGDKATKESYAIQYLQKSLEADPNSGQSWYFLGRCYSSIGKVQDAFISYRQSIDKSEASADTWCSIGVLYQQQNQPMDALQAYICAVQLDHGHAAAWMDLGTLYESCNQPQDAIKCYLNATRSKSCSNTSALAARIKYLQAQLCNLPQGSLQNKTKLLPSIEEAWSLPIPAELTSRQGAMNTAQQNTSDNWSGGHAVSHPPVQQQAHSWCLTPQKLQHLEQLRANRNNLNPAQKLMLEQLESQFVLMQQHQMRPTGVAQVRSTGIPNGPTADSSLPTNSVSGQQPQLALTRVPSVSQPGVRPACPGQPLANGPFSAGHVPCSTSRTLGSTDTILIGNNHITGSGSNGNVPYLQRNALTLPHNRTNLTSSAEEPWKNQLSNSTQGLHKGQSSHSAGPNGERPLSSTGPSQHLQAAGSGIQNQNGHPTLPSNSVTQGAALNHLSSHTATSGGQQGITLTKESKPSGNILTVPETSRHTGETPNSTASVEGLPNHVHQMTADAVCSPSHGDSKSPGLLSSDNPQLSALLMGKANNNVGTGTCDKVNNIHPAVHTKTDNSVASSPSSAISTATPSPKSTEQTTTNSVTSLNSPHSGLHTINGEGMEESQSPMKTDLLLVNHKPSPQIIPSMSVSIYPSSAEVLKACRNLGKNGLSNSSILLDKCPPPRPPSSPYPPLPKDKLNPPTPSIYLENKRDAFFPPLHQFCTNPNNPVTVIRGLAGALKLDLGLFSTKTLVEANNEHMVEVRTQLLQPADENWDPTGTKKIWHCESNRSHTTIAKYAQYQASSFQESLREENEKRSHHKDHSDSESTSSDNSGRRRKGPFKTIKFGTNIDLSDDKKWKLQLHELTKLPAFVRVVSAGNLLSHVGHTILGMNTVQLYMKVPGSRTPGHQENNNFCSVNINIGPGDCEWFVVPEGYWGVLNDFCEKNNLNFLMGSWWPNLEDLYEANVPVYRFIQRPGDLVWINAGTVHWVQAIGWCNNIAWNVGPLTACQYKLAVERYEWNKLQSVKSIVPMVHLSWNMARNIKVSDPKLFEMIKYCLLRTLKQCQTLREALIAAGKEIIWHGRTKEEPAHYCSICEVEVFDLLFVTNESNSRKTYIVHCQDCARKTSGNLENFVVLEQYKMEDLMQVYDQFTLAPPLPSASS
From the text: as §1

JMJD1B = biological target: T26, JMJD1B (Homo sapiens, UniProt Q7LBC6)
T26 construct: purchased BPS Bioscience; Eurofins (HDAC4, 5, 7-11)
From the text: as §1

EZH2 (Y641F) = biological target: T27, EZH2 (Y641F) (Homo sapiens, UniProt Q15910, Y641F)
T27 construct: purchased BPS Bioscience; Eurofins (HDAC4, 5, 7-11)
From the text: as §1

EZH2 (A677G) = biological target: T28, EZH2 (A677G) (Homo sapiens, UniProt Q15910, A677G)
T28 construct: purchased BPS Bioscience; Eurofins (HDAC4, 5, 7-11)
From the text: as §1

JMJD2D = biological target: T29, JMJD2D (Homo sapiens, UniProt Q6B0I6)
T29 construct: purchased BPS Bioscience; Eurofins (HDAC4, 5, 7-11)
From the text: as §1

EZH2 (Y641H) = biological target: T30, EZH2 (Y641H) (Homo sapiens, UniProt Q15910, Y641H)
T30 construct: purchased BPS Bioscience; Eurofins (HDAC4, 5, 7-11)
From the text: as §1

SMILES | inhibition at 10 µM (EZH2 (A738T)) [%] | inhibition at 10 µM (DNMT3A/3L) [%] | inhibition at 10 µM (PRMT1) [%] | inhibition at 10 µM (LSD2) [%] | inhibition at 10 µM (EZH2) [%] | inhibition at 10 µM (MLL1) [%] | inhibition at 10 µM (JMJD1A) [%] | inhibition at 10 µM (SET8) [%] | inhibition at 10 µM (JHDM1D) [%] | inhibition at 10 µM (SIRT2) [%] | inhibition at 10 µM (Jarid1B) [%] | inhibition at 10 µM (SET7/9) [%] | inhibition at 10 µM (DNMT3B/3L) [%] | inhibition at 10 µM (JMJD2B) [%] | inhibition at 10 µM (JMJD3) [%] | inhibition at 10 µM (PRMT6) [%] | inhibition at 10 µM (PRMT8) [%] | inhibition at 10 µM (PRMT5) [%] | inhibition at 10 µM (FBXL11) [%] | inhibition at 10 µM (PRMT4) [%] | other results
COc1cc2nc(-c3cc(C)oc3C)cc(NCC3CCN(c4ncc(C(=O)NO)cn4)CC3)c2cc1OC [CM-1758, 2-[4-[[[2-(2,5-dimethyl-3-furyl)-6,7-dimethoxy-4-quinolyl]amino]methyl] -1-piperidyl]pyrimidine-5-carbohydroxamic acid] | 5 | 44 | 0 | 22 | 0 | 1 | 12 | 9 | 37 | 0 | 29 | 19 | 20 | 10 | 20 | 0 | 0 | 7 | 2 | 0 | inhibition at 10 µM (EZH1): 0%; inhibition at 10 µM (SUV39H1): 1%; inhibition at 10 µM (PHF8): 12%; inhibition at 10 µM (SUV39H2): 1%; pIC50 (UTX): 5.66; inhibition at 10 µM (UTX): 91%; inhibition at 10 µM (JMJD1B): 11%; inhibition at 10 µM (EZH2 (Y641F)): 1%; inhibition at 10 µM (EZH2 (A677G)): 5%; inhibition at 10 µM (JMJD2D): 0%; inhibition at 10 µM (EZH2 (Y641H)): 0%
COc1cc2nc(-c3ccc(C)o3)cc(NCC3CCN(c4ncc(C(=O)NO)cn4)CC3)c2cc1OC [CM-444, 2-[4-[[[6,7-dimethoxy-2-(5-methyl-2-furyl)-4-quinolyl]amino]methyl]-1-piperidyl]pyrimidine-5-carbohydroxamic acid] | 5 | 92 | 0 | 21 | 0 | 0 | 3 | 4 | 4 | 14 | 5 | 0 | 68 | 1 | 21 | 0 | 0 | 0 | 33 | 0 | pIC50 (DNMT3A/3L): 5.74; pIC50 (DNMT3B/3L): 5.64; inhibition at 10 µM (EZH1): 9%; inhibition at 10 µM (SUV39H1): 1%; inhibition at 10 µM (PHF8): 6%; inhibition at 10 µM (SUV39H2): 0%; pIC50 (UTX): 5.82; inhibition at 10 µM (UTX): 95%; inhibition at 10 µM (JMJD1B): 6%; inhibition at 10 µM (EZH2 (Y641F)): 0%; inhibition at 10 µM (EZH2 (A677G)): 0%; inhibition at 10 µM (JMJD2D): 5%; inhibition at 10 µM (EZH2 (Y641H)): 0%
